Where only a bound is given, the exact number is not on record here.

The target in this assay is T1, Rac1 (Homo sapiens, UniProt P63000).
T1 construct: His (N)
The assay is described as follows: Rac Activation AlphaScreen Assay (Rac1 AS). It is filed as biochemical. Conditions: Rac1 AS assay, dose leading to 50% disruption of complex; read-out: IC50. On the procedure:
The IC50 values reported in Tables 1-6 were obtained from the Rae Activation AlphaScreen Assay (Rac1 AS) assay described in subsection 2 under the section entitled “In Vitro Assays”. “†” represents an IC50 of greater than 100 uM; “††” represents an IC50 of greater than 10 uM and less than 50 uM; and “†††” represents an IC50 of less than 10 uM. “POC” means percent of control. […] Lower POC values reflect greater inhibition. “NT” means not tested.
2. Rac Activation AlphaScreen Assay (Rac1 AS)
AlphaScreen® assays were performed in 96-well microplates in a final reaction volume of 60 μL. Recombinant His-Rac1, recombinant GST-PBD (PAK Binding Domain), donor and acceptor beads (PerkinElmer), and inhibitors were incubated in exchange buffer (20 mM Tris pH 7.5, 50 mM NaCl, 1 mM MgCl2, 1 mM EDTA, 500 nM GTPyS (guanosine 5′-[Y-thio]triphosphate)) at 37° C. Readings were performed on a Tecan M1000 pro microplate reader after 1 hour. Data was analyzed using the GraphPad Prism software (GraphPad Software, Inc.), and IC50 (dose leading to 50% disruption of complex) was calculated from the dose-response curves.
For orientation: Alpha assays give light when donor and acceptor beads are brought close together.

Take `O=C(Cc1ccc(Cl)cc1)Nc1ccc(-c2ccc3nnc(-c4ccncc4)n3n2)cc1` [Compound 7]: the IC50 (as a rule, the concentration needed to halve the response being measured) is more than 100 µM.
Regarding `O=C(Cc1cccc(F)c1)Nc1ccc(-c2ccc3nnc(-c4ccncc4)n3n2)cc1` [Compound 8], the IC50 is more than 100 µM.
Consider `Cc1ccc(CC(=O)Nc2ccc(-c3ccc4nnc(-c5ccncc5)n4n3)cc2)cc1C` [Compound 9], for which the IC50 was in the range of 10 to 50 µM.
Turning to `O=C(Cc1cccc(Cl)c1)Nc1ccc(-c2ccc3nnc(-c4ccncc4)n3n2)cc1` [Compound 10], the IC50 is less than 10 µM.
For the compound `Cc1cc(C)cc(CC(=O)Nc2ccc(-c3ccc4nnc(-c5ccncc5)n4n3)cc2)c1` [Compound 11], the 50% inhibitory concentration (IC50) is 10 to 50 µM.
For `O=C(Cc1ccc(F)cc1)Nc1ccc(-c2ccc3nnc(-c4ccncc4)n3n2)cc1` [Compound 12] the value was less than 10 µM; for `Cc1ccccc1CC(=O)Nc1ccc(-c2ccc3nnc(-c4ccncc4)n3n2)cc1` [Compound 13], 10 to 50 µM; for `O=C(Cc1cccc2ccccc12)Nc1ccc(-c2ccc3nnc(-c4ccncc4)n3n2)cc1` [Compound 15], less than 10 µM.
As to `O=C(Cc1ccc2ccccc2c1)Nc1ccc(-c2ccc3nnc(-c4ccncc4)n3n2)cc1` [Compound 16], the half-inhibitory concentration (IC50) was 10 to 50 µM.
Take `O=C(Cc1cccc([N+](=O)[O-])c1)Nc1ccc(-c2ccc3nnc(-c4ccncc4)n3n2)cc1` [Compound 17]: the IC50 was 10 to 50 µM.
As to `O=C(Cc1cccs1)Nc1ccc(-c2ccc3nnc(-c4cccnc4)n3n2)cc1` [Compound 18], the IC50 was 10 to 50 µM.
For the compound `O=C(Cc1cccc2ccccc12)Nc1ccc(-c2ccc3nnc(-c4ccccn4)n3n2)cc1` [Compound 19], the IC50 was less than 10 µM.
For `O=C(Cc1ccc2ccccc2n1)Nc1ccc(-c2ccc3nnc(-c4ccccn4)n3n2)cc1` [Compound 20] the value was more than 100 µM; for `O=C(Cc1ccc(Cl)nc1)Nc1ccc(-c2ccc3nnc(-c4ccccn4)n3n2)cc1` [Compound 21], 10 to 50 µM; for `O=C(Cc1cccnc1Cl)Nc1ccc(-c2ccc3nnc(-c4ccccn4)n3n2)cc1` [Compound 22], less than 10 µM.
Regarding `O=C(Cc1cccc(F)c1)Nc1ccc(-c2ccc3nnc(-c4cccs4)n3n2)cc1` [Compound 24], the 50% inhibitory concentration (IC50) was less than 10 µM.
As to `COc1cccc(CC(=O)Nc2ccc(-c3ccc4nnc(-c5cccs5)n4n3)cc2)c1` [Compound 25], the IC50 fell in the range of 10 to 50 µM.
For the compound `O=C(Cc1ccc(F)cc1)Nc1ccc(-c2ccc3nnc(-c4cccs4)n3n2)cc1` [Compound 26], the IC50 was less than 10 µM.
For `O=C(Cc1ccc(F)cc1F)Nc1ccc(-c2ccc3nnc(-c4cccs4)n3n2)cc1` [Compound 27], the IC50 is less than 10 µM.
Consider `O=C(Cc1ccccc1Cl)Nc1ccc(-c2ccc3nnc(-c4cccs4)n3n2)cc1` [Compound 28], for which the IC50 is less than 10 µM.
With `O=C(Cc1ccccc1)Nc1ccc(-c2ccc3nnc(-c4ccccn4)n3n2)cc1` [Compound 30], the 50% inhibitory concentration (IC50) is less than 10 µM.
In the case of `Cc1nnc2ccc(-c3ccc(NC(=O)Cc4ccco4)cc3)nn12` [Compound 31], the IC50 was more than 100 µM.
Consider `O=S(=O)(Cc1ccccc1)Nc1ccc(-c2ccc3nnc(-c4ccccn4)n3n2)cc1` [Compound 33], for which the IC50 was less than 10 µM.
For `O=C(Cc1ccccc1Cl)Nc1cccc(-c2ccc3nnc(-c4cccnc4)n3n2)c1` [Compound 44] the value was less than 10 µM; for `O=C(Cc1c[nH]c2ccccc12)Nc1cccc(-c2ccc3nnc(-c4cccnc4)n3n2)c1` [Compound 45], less than 10 µM; for `COc1cccc(CC(=O)Nc2cccc(-c3ccc4nnc(-c5cccnc5)n4n3)c2)c1` [Compound 46], less than 10 µM.
On to `O=C(Nc1cccc(-c2ccc3nnc(-c4cccnc4)n3n2)c1)c1ccc2ccccc2c1` [Compound 49], for which the concentration for half-maximal inhibition (IC50) lay within 10 to 50 µM.
The figure for `O=C(Cc1cccs1)Nc1cccc(-c2ccc3nnc(-c4cccnc4)n3n2)c1` [Compound 51] is less than 10 µM; for `O=C(Cc1ccc(Cl)cc1)Nc1cccc(-c2ccc3nnc(-c4cccnc4)n3n2)c1` [Compound 52] it is less than 10 µM; for `O=S(=O)(Cc1ccc(F)cc1F)Nc1cccc(-c2ccc3nnc(-c4cccnc4)n3n2)c1` [Compound 56] it is less than 10 µM.
The figure for `O=S(=O)(Cc1ccc2ccccc2c1)Nc1cccc(-c2ccc3nnc(-c4cccnc4)n3n2)c1` [Compound 57] is less than 10 µM; for `CCc1ccc(CS(=O)(=O)Nc2cccc(-c3ccc4nnc(-c5cccnc5)n4n3)c2)s1` [Compound 59] it is less than 10 µM; for `Cc1ccc(CS(=O)(=O)Nc2cccc(-c3ccc4nnc(-c5cccnc5)n4n3)c2)s1` [Compound 60] it is less than 10 µM.
`O=S(=O)(Cc1ccccc1F)Nc1cccc(-c2ccc3nnc(-c4cccnc4)n3n2)c1` [Compound 62]: the half-maximal inhibitory concentration (IC50) was less than 10 µM.
For `O=S(=O)(Cc1cccc(F)c1)Nc1cccc(-c2ccc3nnc(-c4cccnc4)n3n2)c1` [Compound 63] the value was less than 10 µM; for `Cn1cc(CC(=O)Nc2cccc(-c3ccc4nnc(-c5cccnc5)n4n3)c2)c2ccccc21` [Compound 74], less than 10 µM; for `COc1cccc(C(=O)Nc2cccc(-c3ccc4nnc(-c5ccc(C)o5)n4n3)c2)c1` [Compound 79], less than 10 µM.
For `Cc1ccc(-c2nnc3ccc(-c4cccc(NC(=O)c5ccc(F)cc5)c4)nn23)o1` [Compound 80, 4-fluoro-N-(3-(3-(5-methylfuran-2-yl)-[1,2,4]triazolo[4,3-b]pyridazin-6-yl)phenyl)benzamide], the 50% inhibitory concentration (IC50) was less than 10 µM.
Consider `Cc1ccc(-c2nnc3ccc(-c4cccc(NC(=O)c5ccc(F)c(Cl)c5)c4)nn23)o1` [Compound 81, 3-chloro-4-fluoro-N-(3-(3-(5-methylfuran-2-yl)-[1,2,4]triazolo[4,3-b]pyridazin-6-yl)phenyl)benzamide], for which the IC50 was less than 10 µM.
As for `Cc1ccc(-c2nnc3ccc(-c4cccc(NC(=O)c5cccc(Cl)c5)c4)nn23)o1` [Compound 82, 3-chloro-N-(3-(3-(5-methylfuran-2-yl)-[1,2,4]triazolo[4,3-b]pyridazin-6-yl)phenyl)benzamide], the IC50 was less than 10 µM.
Take `Cc1ccc(-c2nnc3ccc(-c4cccc(NC(=O)c5cccc(Br)c5)c4)nn23)o1` [Compound 83]: the IC50 was less than 10 µM.
Take `Cc1ccc(-c2nnc3ccc(-c4cccc(NC(=O)c5cccc(F)c5)c4)nn23)o1` [Compound 84]: the IC50 is less than 10 µM.
In the case of `Cc1ccc(-c2nnc3ccc(-c4cccc(NC(=O)c5ccc(F)c(F)c5)c4)nn23)o1` [Compound 85], the concentration for half-maximal inhibition (IC50) was less than 10 µM.
For the compound `CSc1cc(C(=O)Nc2cccc(-c3ccc4nnc(-c5ccc(C)o5)n4n3)c2)ccc1F` [Compound 86], the IC50 is less than 10 µM.
With `CCSc1cccc(C(=O)Nc2cccc(-c3ccc4nnc(-c5ccc(C)o5)n4n3)c2)c1` [Compound 87], the IC50 is less than 10 µM.
As to `Cc1ccc(-c2nnc3ccc(-c4cccc(NC(=O)c5cccc(SC(C)C)c5)c4)nn23)o1` [Compound 88, 3-(isopropylthio)-N-(3-(3-(5-methylfuran-2-yl)-[1,2,4]triazolo[4,3-b]pyridazin-6-yl)phenyl)benzamide], the concentration for half-maximal inhibition (IC50) is less than 10 µM.
Turning to `Cc1cccc(C(=O)Nc2cccc(-c3ccc4nnc(-c5ccc(C)o5)n4n3)c2)c1` [Compound 89], the IC50 was less than 10 µM.
The figure for `CCc1cccc(C(=O)Nc2cccc(-c3ccc4nnc(-c5ccc(C)o5)n4n3)c2)c1` [Compound 90, 3-ethyl-N-(3-(3-(5-methylfuran-2-yl)-[1,2,4]triazolo[4,3-b]pyridazin-6-yl)phenyl)benzamide] is less than 10 µM.
On to `Cc1ccc(-c2nnc3ccc(-c4cccc(NC(=O)c5ccc(F)c(SC(C)C)c5)c4)nn23)o1` [Compound 91], for which the 50% inhibitory concentration (IC50) was less than 10 µM.
`Cc1ccc(-c2nnc3ccc(-c4cccc(NC(=O)c5ccc(F)c(C)c5)c4)nn23)o1` [Compound 92]: the half-inhibitory concentration (IC50) was less than 10 µM.
`CCc1cc(C(=O)Nc2cccc(-c3ccc4nnc(-c5ccc(C)o5)n4n3)c2)ccc1F` [Compound 93, 3-ethyl-4-fluoro-N-(3-(3-(5-methylfuran-2-yl)-[1,2,4]triazolo[4,3-b]pyridazin-6-yl)phenyl)benzamide]: the IC50 was less than 10 µM.
On to `Cc1ccc(-c2nnc3ccc(-c4cccc(NC(=O)c5ccc(F)c(Br)c5)c4)nn23)o1` [Compound 94], for which the IC50 is less than 10 µM.
For `COc1cccc(C(=O)Nc2cccc(-c3ccc4nnc(-c5cncs5)n4n3)c2)c1` [Compound 98], the IC50 was less than 10 µM.
With `O=C(Nc1cccc(-c2ccc3nnc(-c4cncs4)n3n2)c1)c1ccc(F)cc1` [Compound 99, 4-fluoro-N-(3-(3-(thiazol-5-yl)-[1,2,4]triazolo[4,3-b]pyridazin-6-yl)phenyl)benzamide], the IC50 is less than 10 µM.
On to `Cc1ccc(-c2nnc3ccc(-c4cccc(NS(=O)(=O)Cc5ccc(F)cc5F)c4)nn23)o1` [Compound 106], for which the IC50 was less than 10 µM.
In the case of `COc1ccc(CS(=O)(=O)Nc2cccc(-c3ccc4nnc(-c5cccnc5)n4n3)c2)cc1` [Compound 107], the IC50 is less than 10 µM.
Take `COc1ccc(CS(=O)(=O)Nc2cccc(-c3ccc4nnc(-c5cccnc5)n4n3)c2)c(OC)c1` [Compound 108]: the IC50 was less than 10 µM.
Regarding `Cc1ccc(-c2nnc3ccc(-c4cccc(NC(=O)c5cnco5)c4)nn23)o1` [Compound 109], the IC50 is less than 10 µM.
For `Cc1ccc(-c2nnc3ccc(-c4cccc(NC(=O)c5ccc(F)c(CCC(C)C)c5)c4)nn23)o1` [Compound 110] the value was less than 10 µM.

The record behind these values is patent US20250235453A1, “TRIAZOLOPYRIDAZINE COMPOUNDS USEFUL AS RAC1 INHIBITORS” (Revere Pharmaceuticals, priority 2021, published 2025).
